ChEMBL document CHEMBL1255344, “Buthionine sulfoximine has anti-Trypanosoma cruzi activity in a murine model of acute Chagas' disease and enhances the efficacy of nifurtimox” (Antimicrob Agents Chemother, 2008)
Active and inactive are the calls of the source. No cut-off for these calls is given here.

How the values were obtained:
[1] = test system: Trypanosoma cruzi; assay: Antitrypanosomal activity against Trypanosoma cruzi clone Dm28c metacyclic trypomastigotes infected in mouse assessed as decrease in heart parasite burden at 30 mg/kg/day, ip measured after 20 days; type: functional, organism-based
[2] = test system: Trypanosoma cruzi; assay: Antitrypanosomal activity against Trypanosoma cruzi clone Dm28c metacyclic trypomastigotes infected in mouse assessed as decrease in heart parasitemia at 220 mg/kg/day, ip measured after 20 days; type: functional, organism-based
[3] = test system: Trypanosoma cruzi; assay: Antitrypanosomal activity against Trypanosoma cruzi clone Dm28c metacyclic trypomastigotes infected in BALB/c mouse assessed as increase in survival rate at 10 mg/kg/day, ip measured after 20 days; type: functional; conditions: 480 h, route intraperitoneal
[4] = test system: Mus musculus; assay: Toxicity in BALB/c mouse at 220 mg/kg/day, ip measured after 20 days; type: organism-based; design: route intraperitoneal; conditions: in vivo, 480 h
[5] = test system: Trypanosoma cruzi; assay: Antitrypanosomal activity against Trypanosoma cruzi clone Dm28c metacyclic trypomastigotes infected in BALB/c mouse assessed as increase in survival rate at 2.5 mg/kg/day, ip measured after 20 days; type: functional, organism-based
[6] = test system: Trypanosoma cruzi; assay: Antitrypanosomal activity against Trypanosoma cruzi clone Dm28c metacyclic trypomastigotes infected in mouse assessed as decrease in heart parasitemia at 30 mg/kg/day, ip measured after 20 days; type: functional, organism-based
[7] = test system: Trypanosoma cruzi; assay: Antitrypanosomal activity against Trypanosoma cruzi clone Dm28c metacyclic trypomastigotes infected in BALB/c mouse assessed as increase in survival rate at 30 mg/kg/day, ip measured after 20 days; type: functional, organism-based
[8] = test system: Trypanosoma cruzi; assay: Antitrypanosomal activity against Trypanosoma cruzi clone Dm28c metacyclic trypomastigotes infected in BALB/c mouse assessed as increase in survival rate at 220 mg/kg/day, ip measured after 20 days (reference value: 25%); type: functional
[9] = test system: Trypanosoma cruzi; assay: Antitrypanosomal activity against Trypanosoma cruzi clone Dm28c metacyclic trypomastigotes infected in mouse assessed as decrease in heart parasite burden at 220 mg/kg/day, ip measured after 20 days; type: functional, organism-based

For `CCCCS(=N)(=O)CCC(N)C(=O)O` (stereo not given) [BUTHIONINE SULFOXIMINE], the Activity [1] was “inactive”, the Activity [2] was “Active” and the survival at 10 mg/kg/day [3] was at most 100%. The Activity [4] was “Non-toxic”, the Activity [5] was “inactive” and the Activity [6] was “inactive”. The Activity [7] was “inactive”, the Activity [8] was “Active” and the survival at 220 mg/kg/day ([8]; 480 h, route intraperitoneal) was at most 80%. The Activity [9] was “Active”.
